Measured values published in patent publication US20060063702A1, “Neuromedin U 2 receptor agonists and uses thereof” (priority 2004, published 2006).
Entries after “also recorded” stand apart in the source; their conditions may differ. Where no end group is shown, it is not given here.

How the values were obtained:
human NMU-2R [1] = biological target: T1, human NMU-2R (Homo sapiens, UniProt Q9GZQ4); assay: NMU-2R reporter gene (luciferase) assay in HEK-293/NMU-2R/3MCS/Luci cells; type: cell-based; conditions: for activation of NMU-2R, expression of reporter gene luciferase: in the presence of forskolin 5 μmol/L
T1 construct: expressed in transfected cells
Protocol: Establishment of stable cell line: HEK-293 cells were maintained in DMEM with 10% FBS (Gibco) and 1% non-essential amino acid at 37° C. […] Twenty-four hours after transfection, cell culture medium was replaced with fresh medium containing G418 at final concentration of 800 mg/L. Stable cell line was generated using limited dilution based on the luciferase activity in the presence of NmU and forskolin (5 μmol/L). The stable cell line was named HEK-293/NMU-2R/3MCS/Luci cells. Luciferase assay and screening for NMU-2R agonists: The luciferase activity was measured according to the protocol from Promega. Briefly, 100 μL of HEK-293/NMU-2R/3MCS/Luci cells at 4×10^4 cells/mL were added into each well of white 96 -well plate (flat, clear bottom, Costar). The cells were maintained in DMEM containing 10% FBS (Gibco) and 1% non-essential amino acid, and incubated at 37° C., 5% CO2 overnight. […] Finally, 110 μL of luciferase substrate Bright GloTM (Promega) was added into each well. Luciferase activity was measured using […] (Molecular Device).

other GPCRs = assay: Specificity assay in more than twenty other GPCR stable cell lines; type: cell-based
Protocol: Several stable cell lines were generated to examine the specificity of the compounds. First, the activity of the compounds in cell line expressing the reporter gene alone were tested. Since the reporter gene cell line was not transfected with NMU-2R expression vector, compounds that can activate the reporter gene expression in this cell line were not NMU-2R agonists. In addition, the compounds in cell lines expressing other GPCRs were tested. More than twenty different GPCR stable cell lines were generated for the specificity assay.

NMU-1R = biological target: T2, NMU-1R (Homo sapiens, UniProt Q9HB89); assay: Activity for NMU-1R; type: cell-based
T2 sequence (Q9HB89 1-426): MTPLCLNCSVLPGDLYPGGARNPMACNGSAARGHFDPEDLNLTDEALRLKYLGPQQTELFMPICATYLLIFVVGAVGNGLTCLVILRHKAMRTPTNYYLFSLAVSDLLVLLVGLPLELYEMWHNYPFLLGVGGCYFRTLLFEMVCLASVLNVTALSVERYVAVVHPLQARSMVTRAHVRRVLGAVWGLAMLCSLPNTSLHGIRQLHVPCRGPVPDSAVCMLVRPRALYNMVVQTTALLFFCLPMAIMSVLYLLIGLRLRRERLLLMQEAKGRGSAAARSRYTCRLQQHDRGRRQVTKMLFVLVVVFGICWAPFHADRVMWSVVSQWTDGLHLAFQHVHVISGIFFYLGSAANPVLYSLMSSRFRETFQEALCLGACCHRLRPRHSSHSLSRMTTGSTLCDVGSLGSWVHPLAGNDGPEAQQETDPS

human NMU-2R [2] = biological target: T1, human NMU-2R; conditions: literature refs 5-7, 15-20; cited from earlier work

T1 sequence (Q9GZQ4 whole entry): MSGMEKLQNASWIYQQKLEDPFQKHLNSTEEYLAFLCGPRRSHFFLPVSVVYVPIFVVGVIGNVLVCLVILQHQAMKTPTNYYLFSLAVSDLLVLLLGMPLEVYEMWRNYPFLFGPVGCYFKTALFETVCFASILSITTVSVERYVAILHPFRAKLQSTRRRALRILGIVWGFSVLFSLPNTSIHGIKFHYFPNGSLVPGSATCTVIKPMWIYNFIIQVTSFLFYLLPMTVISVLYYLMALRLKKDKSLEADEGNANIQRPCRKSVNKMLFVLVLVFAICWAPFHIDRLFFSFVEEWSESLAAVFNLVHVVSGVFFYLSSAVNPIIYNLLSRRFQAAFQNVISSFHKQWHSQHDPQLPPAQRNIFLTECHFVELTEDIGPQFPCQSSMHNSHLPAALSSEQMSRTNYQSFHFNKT

Compound	activation of NMU-2R, expression of reporter gene luciferase (human NMU-2R [1])	effect on other GPCRs (other GPCRs)	activity for NMU-1R (NMU-1R)	induction of reporter gene expression (human NMU-2R [1]; NmU alone, without forskolin)	potency of receptor activation (human NMU-2R [2])
COc1ccc(-c2oc3c(CC=C(C)C)c(O[C@@H]4O[C@H](CO)[C@@H](O)[C@H](O)[C@H]4O)cc(O)c3c(=O)c2O[C@@H]2O[C@@H](C)[C@H](O)[C@@H](O)[C@H]2O)cc1 [Icariin]	potential NMU-2R agonists	–	–	–	–
COc1ccc([C@@H]2CC(=O)c3c(O)cc(O[C@@H]4O[C@H](CO[C@@H]5O[C@@H](C)[C@H](O)[C@@H](O)[C@H]5O)[C@@H](O)[C@H](O)[C@H]4O)cc3O2)cc1O [Hesperidin]	potential NMU-2R agonists	–	–	–	–
C[C@@H]1O[C@@H](OC[C@H]2O[C@@H](Oc3c(-c4ccc(O)c(O)c4)oc4cc(O)cc(O)c4c3=O)[C@H](O)[C@@H](O)[C@@H]2O)[C@H](O)[C@H](O)[C@H]1O [Rutin]	–	no activity	no activity	–	–
Neuromedin U (FRVDEEFQSPFASQSRGYFLFRPRN; ends and bridges not checked; UniProt P48645 142-166, looked up) [NmU, peptide hormone, natural ligand for NMU-2R]	best response; also recorded: significantly increased	–	–	only slightly induced	nanomolar range
